Entries after “also recorded” stand apart in the source; their conditions may differ.
Tests used:
Meg-01 cells [1] = assay: Platelet production from Meg-01 cells (flow cytometry); type: cell-based, human
Procedure: Meg-01 and M07e cells were purchased from the American Type Culture Collection (Rockville, Md.) and Dami cells were a generous gift from Dr. Patricia J. Simpson-Haidaris (University of Rochester). All cells were cultured in RPMI-1640 tissue culture medium (Invitrogen) supplemented with 5% fetal bovine serum (FBS; Invitrogen), 10 mM HEPES (N-2-hydroxyethylpiperazine-N′-2-ethanesulfonic acid; Sigma), 2 mM L-glutamine (Invitrogen), 4.5 g/L glucose (Invitrogen), and 50 μg/mL gentamicin (Invitrogen). M07e cells were also supplemented with 100 ng/mL of granulocyte monocyte-colony stimulating factor (GM-CSF, R&D Systems). All treatments were performed in normal growth media. Dimethyl sulfoxide (DMSO) was used as a vehicle (control) in the experiments described below.
Platelets were isolated from megakaryocytes by centrifugation at 150 xg for 10 min. Supernatants underwent sequential centrifugation (500 xg for 10 min and 1000×g for 10 min). The remaining platelet pellet was fixed then permeabilized with a CD61 or CD41 antibody. 7-AAD (BD Pharmingen) was added for 10 min before analyzing the cells by flow cytometry. Platelets were identified using three well-described parameters (Patel et al., “The Biogenesis of Platelets from Megakaryocyte Proplatelets,” J Clin Invest 115:3348-3354 (2005); Breton-Gorius et al., “Expression of Platelet Proteins During the In Vitro and In Vivo Differentiation of Megakaryocytes and Morphological Aspects of Their Maturation,” Semin Hematol 23:43-67 (1986); Ogura et al., “Establishment of a Novel Human Megakaryoblastic Leukemia Cell Line, MEG-01, With Positive Philadelphia Chromosome,” Blood 66:1384-1392 (1985) and Franks et al., “A Fluorescence Microscopy Method for Quantifying Levels of Prostaglandin Endoperoxide H Synthase-1 and CD-41 in MEG-01 Cells,” Biol Proced Online 3:54-63 (2001), each of which is hereby incorporated by reference in its entirety), size (using normal human platelets as a control), presence of CD61 or CD41 and lack of DNA as determined by the absence of 7-AAD staining Ten thousand platelet events were collected and platelets were quantified by rate (platelet events/second) (Chung et al., “Platelet Activation in Acute, Decompensated Congestive Heart Failure,” Thromb Res 120:709-713 (2007), which is hereby incorporated by reference in its entirety.
A 19 by target sequence was selected to knock down PPARγ. PPARγ was cloned downstream of the RNA polymerase III U6 promoter and subcloned into a FG12 lentiviral vector which expresses green fluorescent protein (GFP) under the Ubiquitin C promoter. HEK 293 cells expressing this siRNA PPARγ had reduced PPARγ protein levels. To make the lentivirus, HEK 293 cells were co-transfected with 3 plasmids: the envelope vector (CMV-VSVG), the transfer vector (FG12-shRNAPPAR), and the packaging construct (pCMVΔ89.2 (gag/pol proteins)). Viral supernatants were collected every 8 h for 2 days and concentrated by ultracentrifugation at 50,000×g for 2 h at 4° C. using a Beckman SW 28 rotor. Viral titers were determined by infection of HeLa cells with serial dilutions of the viral stocks. Meg-01 cells were infected at a multiplicity of infection (MOI) of 20. After 48 h, approximately 56% of the PPARγ siRNA cells were transduced as determined by flow cytometry. The GFP positive (+) cells were then sorted by FACS and grown in RPMI with 5% FBS.

Meg-01 cells [2] = assay: Reactive oxygen species production in Meg-01 cells (carboxy-H2DCFDA, MitoSOX Red); type: cell-based, human; conditions: for percentage of Meg-01 cells that produce mitochondrial superoxide (MitoSOX Red): 10 μM
Procedure: Ten μM carboxy-H2DCFDA was added to cells for 20 min at RT. The cells were washed and immediately analyzed by flow cytometry. Five μM of MitoSOX Red dye in HBSS containing Mg^2+ and Ca^2+ was added to the cells for 15 min at 37° C. The cells were washed in HBSS and analyzed by flow cytometry.

[3] = test system: mouse megakaryocyte progenitors (Meg-CFC); assay: Megakaryocyte progenitor (Meg-CFC) assay on bone marrow of treated mice; type: in vivo
Procedure: Primary mouse bone marrow cells were suspended in IMDM at a concentration of 8×10^6 cells/mL. Two-hundred thousand cells were plated in IMDM supplemented with 20% BIT9500, 0.2% 2-mercaptoethanol, 2% Glutamax, and 20% Cellgro-H20 (Mediatech, Herndon, Va.) and cultured with rhTPO (50 ng/mL), IL-3 (10 ng/mL) (Preprotech, Rocky Hill, N.J.), IL-6 (20 ng/mL) (Preprotech), IL-11 (Preprotech) (50 ng/mL), and collagen at 37° for 7 days (Tober et al., “The Megakaryocyte Lineage Originates from Hemangioblast Precursors and is an Integral Component Both of Primitive and of Definitive Hematopoiesis,” Blood 109:1433-1441 (2007), which is hereby incorporated by reference in its entirety). Collagen gels were dehydrated, fixed, and labeled with GPIbβ and GPV, modified by ABC (Vector Labs, Burlingame, Calif.), and developed in Vector Red (Vector Labs). Meg-CFC were defined by their ability to generate colonies containing at least three megakaryocytes.

C57BL/6 mice = assay: Circulating platelet number in unirradiated mice; type: in vivo, mouse (C57BL/6); conditions: unirradiated mice, 1 mg/kg IV for 4 consecutive days
Procedure: Seven or 8-week-old male C57BL/6 mice (Jackson Laboratories) were either exposed to 5 Gy cesium (Cs^137) total body irradiation (TBI) using a Model 8114 6000 Curie Shepherd Cs^137 irradiator (approximately 3200 Curie sealed Cs^137 source) with a dose rate of […] or left unexposed. Mice (n=4) received intravenous injections of vehicle (8% DMSO) or 15d-PGJ2 (1 mg/kg) or CDDO-Me (250 μg/kg) for 4 consecutive days from day 1 (days 1, 2, 3 and 4 post-irradiation). Blood was obtained from the aorta or the orbital sinus. Platelets were counted prior to radiation exposure and after radiation exposure on day 10, day 22, and day 31 in Example 7, or days 4, 10, 16, and 21 in Example 9 using the Heska® CBC-Diff™ Veterinary Analyzer (Fort Collins, Colo.). Data are expressed as average platelet counts from two separate experiments. For the unirradiated mice, platelets were counted on day 4, day 10, and day 15 in Example 7 or on the same days in Example 9.

Meg-01 cells [4] = assay: Active-caspase protein in Meg-01 cells; type: cell-based, human; conditions: Meg-01 cells in the presence of 15d-PGJ2
[5] = mice injected 1 mg/kg for two consecutive days, 7 days of culture

CCCCCC=CC=C1C(=O)C=C[C@@H]1CC=CCCCC(=O)O [15d-PGJ2, 15-deoxy-Δ^12,14 prostaglandin J2]
platelet-enhancing effect after PPARγ protein knock-down (Meg-01 cells [1]; Meg-01 cells infected with PPARγ siRNA lentivirus, 15d-PGJ2 24 h): failed to attenuate the platelet-enhancing effects of 15d-PGJ2 | platelet production (Meg-01 cells [1]; Meg-01 cells, 10 μM, 24 h): increased platelet production; also recorded: enhanced Meg-01 platelet production | platelet production with increasing concentrations (Meg-01 cells [1]; Meg-01 cells, increasing concentrations, 24 h): dose-dependent increase in platelet production | percentage of Meg-01 cells that produce mitochondrial superoxide (MitoSOX Red) (Meg-01 cells [2]; 1 h): 43% | percentage of Meg-01 cells that produce mitochondrial superoxide (MitoSOX Red) (Meg-01 cells [2]; 6 h): 31% | percentage of Meg-01 cells that express ROS (carboxy-H2DCFDA) (Meg-01 cells [2]; 1 h): 91% | percentage of Meg-01 cells that express ROS (carboxy-H2DCFDA) (Meg-01 cells [2]; 6 h): 97% | megakaryocyte number [3]: failed to increase megakaryocyte number | megakaryocyte colony number (Meg-CFC) [3, 5]: did not influence megakaryocyte colony number or colony size | megakaryocyte colony size (Meg-CFC) [3, 5]: did not influence megakaryocyte colony number or colony size | percentage of megakaryocytes producing proplatelets [3, 5]: significantly augmented the percentage of megakaryocytes producing proplatelets | platelet numbers compared with vehicle (C57BL/6 mice): higher platelet numbers | active-caspase protein (Meg-01 cells [4]): upregulated active-caspase protein

From patent US9012439B2, “Use of electrophilic compounds for inducing platelet production or maintaining platelet function” (University of Rochester, priority 2007, dated 2015)
